Test results: the supplement of paper PMC13380429

What was measured:
[1] = system: A549-ACE2 infected with SARS-CoV-2; assay: morphology score (similarity to uninfected cells); higher = more like uninfected cells; details: 24 h
Calu-3 [2] = assay: drug sensitivity score (DSS) for viability; higher = more toxic; extreme values may be limits of the assay; details: 72 h
HepG2 [3] = assay: as above; details: 72 h
U2OS [4] = assay: as above; details: 72 h
[5] = system: A549-ACE2 infected with SARS-CoV-2; assay: cell count relative to DMSO; higher = less toxic; details: 24 h
Caco-2 [6] = assay: cell viability relative to DMSO; higher = less toxic; details: 72 h
Calu-3 [7] = assay: as above; details: 72 h
HepG2 [8] = assay: as above; details: 72 h
U2OS [9] = assay: as above; details: 72 h
Vero E6 [10] = assay: as above; details: 72 h
[11] = system: A549-ACE2 infected with SARS-CoV-2; assay: SARS-CoV-2 infection rate relative to DMSO; higher = more infection; details: 24 h
A549-ACE2 [12] = assay: drug-induced phospholipidosis relative to tamoxifen; higher = more phospholipidosis
Caco-2 [13] = assay: relative viability EC50 (midpoint between 100% and the lowest measured viability); higher = less toxic; details: 72 h
Calu-3 [14] = assay: as above; details: 72 h
HepG2 [15] = assay: as above; details: 72 h
U2OS [16] = assay: as above; details: 72 h
Vero E6 [17] = assay: as above; details: 72 h
Caco-2 [18] = assay: drug sensitivity score (DSS) for viability; higher = more toxic; extreme values may be limits of the assay; details: 72 h
Vero E6 [19] = assay: as above; details: 72 h
A549-ACE2 [20] = assay: phospholipidosis EC50; higher = less potent phospholipidosis inducer

CCN(CC)CCCC(C)Nc1ccnc2cc(Cl)ccc12 (stereo not drawn) [chloroquine]
[1]
Details	morphology score
0.3 µM	0.17
3 µM	0.37
10 µM	0.63
30 µM	0.8

Details	drug sensitivity score
Calu-3 [2]	0
HepG2 [3]	0.6
U2OS [4]	0

CCN(CC)C(=S)SSC(=S)N(CC)CC [disulfiram]
Details	SARS-CoV-2 infection rate, [11] [%]	cell count, [5] [%]	cell viability, Caco-2 [6] [%]	cell viability, Calu-3 [7] [%]	cell viability, HepG2 [8] [%]	cell viability, U2OS [9] [%]	cell viability, Vero E6 [10] [%]	morphology score, [1]
1 nM	–	–	103	101	104	100	108	–
10 nM	–	–	90.1	90.5	103	99.6	104	–
100 nM	–	–	19.1	94.7	53.2	99	101	–
0.3 µM	84	105	–	–	–	–	–	0.44
1000 nM	–	–	9.6	36.9	13.7	78	89.3	–
3 µM	76	106	–	–	–	–	–	0.45
10 µM	27	63	–	–	–	–	–	0.51
10000 nM	–	–	75.3	106	95	94.6	99.6	–
30 µM	32	58	–	–	–	–	–	0.35

drug-induced phospholipidosis [%], A549-ACE2 [12]
Details	0.3 µM	0.833333 µM	3.33333 µM	6.66667 µM	10 µM	30 µM
24 h	2.43	-1.42	2.59	-0.54	2.87	7.83
48 h	–	–	–	-0.28	1.88	–
72 h	–	–	–	1.75	1.77	–

Details	drug sensitivity score	relative viability EC50
Caco-2 [13]	–	31.4 nM
Caco-2 [18]	27.5	–
Calu-3 [2]	0	–
Calu-3 [14]	–	> 10000 nM
HepG2 [3]	21.4	–
HepG2 [15]	–	93.6 nM
U2OS [4]	0.2	–
U2OS [16]	–	> 10 µM
Vero E6 [17]	–	> 10 µM
Vero E6 [19]	0	–

OCCN1CCN(CCCN2c3ccccc3Sc3ccc(C(F)(F)F)cc32)CC1 [fluphenazine]
Details	SARS-CoV-2 infection rate [%]	cell count [%]	cell viability [%]	morphology score	phospholipidosis EC50 [µM]
A549-ACE2 [20], 24 h	–	–	–	–	3.49
A549-ACE2 [20], 48 h	–	–	–	–	5.08
A549-ACE2 [20], 72 h	–	–	–	–	6.62
Caco-2 [6], 1 nM	–	–	101	–	–
Caco-2 [6], 10 nM	–	–	100	–	–
Caco-2 [6], 100 nM	–	–	88.2	–	–
Caco-2 [6], 1000 nM	–	–	85.2	–	–
Caco-2 [6], 10000 nM	–	–	64.4	–	–
Calu-3 [7], 1 nM	–	–	101	–	–
Calu-3 [7], 10 nM	–	–	110	–	–
Calu-3 [7], 100 nM	–	–	96.8	–	–
Calu-3 [7], 1000 nM	–	–	98.1	–	–
Calu-3 [7], 10000 nM	–	–	22.4	–	–
HepG2 [8], 1 nM	–	–	102	–	–
HepG2 [8], 10 nM	–	–	90.9	–	–
HepG2 [8], 100 nM	–	–	95.9	–	–
HepG2 [8], 1000 nM	–	–	96.1	–	–
HepG2 [8], 10000 nM	–	–	49.4	–	–
U2OS [9], 1 nM	–	–	101	–	–
U2OS [9], 10 nM	–	–	101	–	–
U2OS [9], 100 nM	–	–	94.7	–	–
U2OS [9], 1000 nM	–	–	92.6	–	–
U2OS [9], 10000 nM	–	–	84.2	–	–
Vero E6 [10], 1 nM	–	–	103	–	–
Vero E6 [10], 10 nM	–	–	100	–	–
Vero E6 [10], 100 nM	–	–	101	–	–
Vero E6 [10], 1000 nM	–	–	95.5	–	–
Vero E6 [10], 10000 nM	–	–	52	–	–
[1], 0.1 µM	–	–	–	0.13	–
[1], 0.3 µM	–	–	–	0.02	–
[1], 1 µM	–	–	–	0.49	–
[1], 3 µM	–	–	–	0.75	–
[5], 0.1 µM	–	103	–	–	–
[5], 0.3 µM	–	99	–	–	–
[5], 1 µM	–	90	–	–	–
[5], 3 µM	–	122	–	–	–
[11], 0.1 µM	97	–	–	–	–
[11], 0.3 µM	99	–	–	–	–
[11], 1 µM	83	–	–	–	–
[11], 3 µM	44	–	–	–	–

drug-induced phospholipidosis [%], A549-ACE2 [12]
Details	0.3 µM	0.833333 µM	3.33333 µM	6.66667 µM	10 µM	30 µM
24 h	3.92	11.1	44.3	81.8	103	78.9
48 h	2.29	10	32.4	91.3	114	–
72 h	4.14	10.7	24.3	80.2	116	–

Details	drug sensitivity score	relative viability EC50
Caco-2 [18]	3.4	–
Calu-3 [2]	4.5	–
Calu-3 [14]	–	2990 nM
HepG2 [3]	3.3	–
HepG2 [15]	–	2530 nM
U2OS [4]	0.5	–
U2OS [16]	–	> 10 µM
Vero E6 [19]	3.2	–
